From ChEMBL document CHEMBL1140215, “Discovery of sodium R-(+)-4-{2-[5-(2-fluoro-3-methoxyphenyl)-3-(2-fluoro-6-[trifluoromethyl]benzyl)-4-methyl-2,6-dioxo-3,6-dihydro-2H-pyrimidin-1-yl]-1-phenylethylamino}butyrate (elagolix), a potent and orally available nonpeptide antagonist of the human gonadotropin-releasing hormone receptor” (J Med Chem, 2008)
Each block holds one compound with its values, some of them ahead of it. Activity calls are given as the source filed them. No cut-off for these calls is given here.

Columns and labels:
[1] = target: T1, Gonadotropin-releasing hormone receptor (Homo sapiens, UniProt P30968); assay: Displacement of [125I-Tyr5,DLeu6,NMeLeu7,Pro9-NEt-]GnRH from human GnRH receptor expressed in HEK293 cells by liquid scintillation counting; format: cell-based
T1 sequence (P30968 whole entry): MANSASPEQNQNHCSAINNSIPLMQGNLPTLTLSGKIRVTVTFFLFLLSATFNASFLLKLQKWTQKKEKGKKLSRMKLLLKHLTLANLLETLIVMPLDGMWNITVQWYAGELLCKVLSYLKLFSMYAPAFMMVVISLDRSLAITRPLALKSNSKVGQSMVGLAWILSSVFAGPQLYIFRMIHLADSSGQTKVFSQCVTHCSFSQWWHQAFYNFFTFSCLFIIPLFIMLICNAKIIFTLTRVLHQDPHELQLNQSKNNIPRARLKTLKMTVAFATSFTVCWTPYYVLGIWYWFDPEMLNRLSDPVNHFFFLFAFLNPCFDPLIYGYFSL

Cytochrome P450 3A4 = Cytochrome P450 3A4 (Homo sapiens, UniProt P08684); assay: Inhibition of CYP3A4; format: ADME
Caco-2 [2] = assay: Ratio of permeability from apical to basolateral side over basolateral to apical side in human Caco-2 cells at 1 mM; format: ADME, cell-based; conditions: caco-2, 1000 µM
Cynomolgus monkey [3] = assay: Suppression of circulating plasma LH levels in cynomolgus monkey at 30 mg/kg, po after 8 hrs; format: functional, Macaca fascicularis
[4] = target: T1, Gonadotropin-releasing hormone receptor; assay: Antagonist activity at human GnRH receptor expressed in RBL1 cells assessed as inhibition of GnRH-stimulated inositol phosphate production; format: functional, cell-based, RBL-1
[5] = target: T2, Gonadotropin-releasing hormone receptor (Rattus norvegicus, UniProt P30969); assay: Displacement of [125I-Tyr5,DLeu6,NMeLeu7,Pro9-NEt-]GnRH from rat GnRH receptor expressed in CHO cells by liquid scintillation counting; format: cell-based
T2 sequence (P30969 whole entry): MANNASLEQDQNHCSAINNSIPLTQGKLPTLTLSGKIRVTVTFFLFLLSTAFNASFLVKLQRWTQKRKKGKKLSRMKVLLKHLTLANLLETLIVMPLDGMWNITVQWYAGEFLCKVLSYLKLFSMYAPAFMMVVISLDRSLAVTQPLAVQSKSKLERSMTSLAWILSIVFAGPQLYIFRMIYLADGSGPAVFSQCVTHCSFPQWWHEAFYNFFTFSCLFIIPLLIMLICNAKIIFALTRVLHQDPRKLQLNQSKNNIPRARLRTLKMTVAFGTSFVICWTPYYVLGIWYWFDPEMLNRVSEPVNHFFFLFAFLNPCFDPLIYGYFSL

[6] = target: T3, Gonadotropin-releasing hormone receptor (Macaca mulatta, UniProt Q8SPZ1); assay: Displacement of [125I-Tyr5,DLeu6,NMeLeu7,Pro9-NEt-]GnRH from monkey GnRH receptor expressed in CHO cells by liquid scintillation counting; format: cell-based
T3 sequence (Q8SPZ1 whole entry): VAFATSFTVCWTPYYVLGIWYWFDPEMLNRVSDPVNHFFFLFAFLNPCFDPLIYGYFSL

Mast cell = assay: Induction of histamine release in rat peritoneal mast cells; format: functional, cell-based
[7] = Apparent permeability across human Caco-2 cell membrane; format: ADME, cell-based
Caco-2 [8] = assay: Ratio of permeability from apical to basolateral side over basolateral to apical side in human Caco-2 cells; format: ADME, cell-based
[9] = Lipophilicity, log D of the compound; format: physicochemical; conditions: octanol/water
[10] = Half life in rat at 3 mg/kg, iv; format: ADME, organism-based; design: dose 3 mg/kg, route intravenous; conditions: in vivo
[11] = Plasma clearance in rat at 3 mg/kg, iv; format: ADME, organism-based; design: dose 3 mg/kg, route intravenous
[12] = Volume of distribution in rat at 3 mg/kg, iv; format: ADME, organism-based; design: dose 3 mg/kg, route intravenous; conditions: in vivo
[13] = Cmax in rat at 3 mg/kg, iv; format: ADME, organism-based; design: dose 3 mg/kg, route intravenous; conditions: in vivo
[14] = Tmax in rat at 3 mg/kg, iv; format: ADME, organism-based; design: dose 3 mg/kg, route intravenous; conditions: in vivo
[15] = (§1) AUC in rat at 3 mg/kg, iv; format: ADME, organism-based, Plasma; design: dose 3 mg/kg, route intravenous; conditions: plasma
[16] = Bioavailability in rat at 3 mg/kg, iv; format: ADME, organism-based; conditions: in vivo
[17] = Half life in mouse; format: ADME, organism-based; conditions: in vivo
[18] = Plasma clearance in mouse; format: ADME, organism-based
[19] = Volume of distribution in mouse; format: ADME, organism-based; conditions: in vivo
[20] = Cmax in mouse; format: ADME, organism-based; conditions: in vivo
[21] = Tmax in mouse; format: ADME, organism-based; conditions: in vivo
[22] = AUC in mouse; format: ADME, organism-based; conditions: plasma
[23] = Oral bioavailability in mouse; format: ADME, organism-based; conditions: in vivo
[24] = Half life in rhesus monkey; format: ADME, organism-based, Macaca mulatta; conditions: in vivo
[25] = Plasma clearance in rhesus monkey; format: ADME, organism-based, Macaca mulatta
[26] = Volume of distribution in rhesus monkey; format: ADME, organism-based, Macaca mulatta; conditions: in vivo
[27] = Cmax in rhesus monkey; format: ADME, organism-based, Macaca mulatta; conditions: in vivo
[28] = Tmax in rhesus monkey; format: ADME, organism-based, Macaca mulatta; conditions: in vivo
[29] = AUC in rhesus monkey; format: ADME, organism-based, Macaca mulatta; conditions: plasma
[30] = Oral bioavailability in rhesus monkey; format: ADME, organism-based, Macaca mulatta; conditions: in vivo
[31] = Half life in Beagle dog at 50 mg/kg, po; format: ADME, organism-based, Canis lupus familiaris; design: dose 50 mg/kg, route oral; conditions: in vivo
[32] = Plasma clearance in Beagle dog at 50 mg/kg, po; format: ADME, organism-based, Canis lupus familiaris; design: dose 50 mg/kg, route oral
Canis familiaris = assay: Volume of distribution in Beagle dog at 50 mg/kg, po; format: ADME, organism-based, Canis lupus familiaris; design: dose 50 mg/kg, route oral; conditions: in vivo
[33] = Cmax in Beagle dog at 50 mg/kg, po; format: ADME, organism-based, Canis lupus familiaris; design: dose 50 mg/kg, route oral; conditions: in vivo
[34] = Tmax in Beagle dog at 50 mg/kg, po; format: ADME, organism-based, Canis lupus familiaris; design: dose 50 mg/kg, route oral; conditions: in vivo
[35] = AUC in Beagle dog at 50 mg/kg, po; format: ADME, organism-based, Canis lupus familiaris; design: dose 50 mg/kg, route oral; conditions: plasma
[36] = Bioavailability in Beagle dog at 50 mg/kg; format: ADME, organism-based, Canis lupus familiaris; conditions: in vivo
[37] = Cmax in rat at 10 mg/kg, iv and 10 mg/kg, po; format: ADME, organism-based; conditions: in vivo
[38] = Tmax in rat at 10 mg/kg, iv and 10 mg/kg, po; format: ADME, organism-based; conditions: in vivo
[39] = AUC in rat at 10 mg/kg, iv and 10 mg/kg, po; format: ADME, organism-based; conditions: plasma
Cynomolgus monkey [40] = assay: Suppression of circulating plasma LH levels in cynomolgus monkey at 30 mg/kg, po after 4 to 8 hrs; format: functional, Macaca fascicularis
[41] = Half life in rat at 10 mg/kg, iv and 10 mg/kg, po; format: ADME, organism-based; conditions: in vivo
[42] = Plasma clearance in rat at 10 mg/kg, iv and 10 mg/kg, po; format: ADME, organism-based
[43] = Volume of distribution in rat at 10 mg/kg, iv and 10 mg/kg, po; format: ADME, organism-based; conditions: in vivo
[44] = Oral bioavailability in rat at 10 mg/kg, iv and 10 mg/kg, po; format: ADME, organism-based; conditions: in vivo
Rattus norvegicus = assay: as §1; format: ADME, organism-based, Plasma; design: dose 3 mg/kg, route intravenous; conditions: in vivo

Cytochrome P450 3A4, sequence (P08684 whole entry): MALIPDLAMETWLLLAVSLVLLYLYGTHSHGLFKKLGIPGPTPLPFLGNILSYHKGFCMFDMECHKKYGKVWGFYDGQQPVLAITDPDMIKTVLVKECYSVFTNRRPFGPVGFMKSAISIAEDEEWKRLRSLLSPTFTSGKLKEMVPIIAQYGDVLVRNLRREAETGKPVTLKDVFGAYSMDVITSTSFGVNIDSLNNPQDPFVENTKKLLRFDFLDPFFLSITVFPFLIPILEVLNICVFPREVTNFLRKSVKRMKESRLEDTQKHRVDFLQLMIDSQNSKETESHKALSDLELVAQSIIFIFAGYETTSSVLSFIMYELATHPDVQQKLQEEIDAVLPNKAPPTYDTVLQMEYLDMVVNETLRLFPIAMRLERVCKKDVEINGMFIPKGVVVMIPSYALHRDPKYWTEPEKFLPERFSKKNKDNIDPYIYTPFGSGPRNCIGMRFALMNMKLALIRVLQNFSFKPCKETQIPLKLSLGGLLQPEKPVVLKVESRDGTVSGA

Ki [1]: 7.6 nM | IC50 (Cytochrome P450 3A4): 29000 nM
Compound: COc1cccc(-c2c(C)n(Cc3c(F)cccc3C(F)(F)F)c(=O)n(C[C@H](NCCCCC(=O)O)c3ccccc3)c2=O)c1F

Compound: COc1cccc(-c2c(C)n(Cc3c(F)cccc3C(F)(F)F)c(=O)n(C[C@H](NCCCC(=O)[O-])c3ccccc3)c2=O)c1F.[Na+] [ELAGOLIX SODIUM]
Ratio (Caco-2 [2]): 1.3 | Activity (Cynomolgus monkey [3]): 75% | Ki [1]: 0.9 nM | IC50 [4]: 1.5 nM | IC50 (Cytochrome P450 3A4): 56000 nM | Ki [5]: 4400 nM | Ki [6]: 3.3 nM | Activity (Mast cell): inactive | Papp [7]: 2.8 ×10⁻⁶ cm/s | Ratio (Caco-2 [8]): 9.2 | logD [9]: 2 | half-life [10]: 0.9 h | clearance [11]: 33.3 mL/min/kg | Vd [12]: 2.6 L/kg | Cmax [13]: 338 ng/mL | Tmax [14]: 0.25 h | AUC [15]: 290 ng·h/mL | bioavailability [16]: 5.8% | half-life [17]: 0.3 h | clearance [18]: 50 mL/min/kg | Vd [19]: 1.4 L/kg | Cmax [20]: 741 ng/mL | Tmax [21]: 0.25 h | AUC [22]: 326 ng·h/mL | bioavailability [23]: 10% | half-life [24]: 1.1 h | clearance [25]: 25.7 mL/min/kg | Vd [26]: 2.5 L/kg | Cmax [27]: 518 ng/mL | Tmax [28]: 0.69 h | AUC [29]: 699 ng·h/mL | bioavailability [30]: 11% | half-life [31]: 2.8 h | CL/F [32]: 14.5 mL/min/kg | Vd (Canis familiaris): 0.92 L/kg | Cmax [33]: 13900 ng/mL | Tmax [34]: 2 h | AUC [35]: 80700 ng·h/mL | bioavailability [36]: 100%

Ki [1]: 12 nM | IC50 (Cytochrome P450 3A4): 69000 nM
Compound: COc1cccc(-c2c(C)n(Cc3c(F)cccc3C(F)(F)F)c(=O)n(C[C@H](NCCC(=O)O)c3ccccc3)c2=O)c1F

Ki [1]: 3.7 nM | IC50 (Cytochrome P450 3A4): 69000 nM | Papp [7]: 7.5 ×10⁻⁶ cm/s | Ratio (Caco-2 [8]): 4 | half-life [10]: 2.6 h | clearance [11]: 26.4 mL/min/kg | Vd [12]: 3.2 L/kg | Cmax [13]: 592 ng/mL | Tmax [14]: 0.25 h | AUC [15]: 385 ng·h/mL | bioavailability [16]: 3.7%
Compound: COc1cccc(-c2c(C)n(Cc3c(F)cccc3C(F)(F)F)c(=O)n(C[C@@H](c3ccccc3)N(C)CCCC(=O)O)c2=O)c1F

Ki [1]: 1.1 nM | IC50 [4]: 3.2 nM | IC50 (Cytochrome P450 3A4): 11000 nM
Compound: COc1cccc(-c2c(C)n(Cc3c(F)cccc3Cl)c(=O)n(C[C@H](NCCCC(=O)O)c3ccccc3)c2=O)c1F

Ki [1]: 71 nM
Compound: COc1cccc(-c2c(C)n(Cc3c(F)cccc3C(F)(F)F)c(=O)n(C[C@H](NCC(=O)O)c3ccccc3)c2=O)c1F

Ki [1]: 4.2 nM | IC50 (Cytochrome P450 3A4): 440 nM
Compound: COC(=O)CCCN[C@@H](Cn1c(=O)c(-c2cccc(OC)c2F)c(C)n(Cc2c(F)cccc2C(F)(F)F)c1=O)c1ccccc1

IC50 [4]: 0.5 nM | IC50 (Cytochrome P450 3A4): 230 nM | Ki [5]: 1200 nM | Cmax [37]: 15 ng/mL | Tmax [38]: 1.2 h | AUC [39]: 46 ng·h/mL
Compound: COc1cccc(-c2c(C)n(Cc3c(F)cccc3C(F)(F)F)c(=O)n(C[C@H](N)c3ccccc3)c2=O)c1F

IC50 (Cytochrome P450 3A4): 700 nM | Papp [7]: 17.6 ×10⁻⁶ cm/s | logD [9]: 1.8 | half-life [41]: 1.3 h | clearance [42]: 64.7 mL/min/kg | Vd [43]: 7.1 L/kg | Cmax [37]: 24.2 ng/mL | Tmax [38]: 1 h | AUC [39]: 106 ng·h/mL | bioavailability [44]: 3.5%
Compound: COc1cccc(-c2c(C)n(Cc3c(F)cccc3F)c(=O)n(C[C@H](N)c3ccccc3)c2=O)c1F
Activity (Cynomolgus monkey [40]): 50%

Ki [1]: 2.1 nM | IC50 [4]: 27 nM | IC50 (Cytochrome P450 3A4): 135000 nM | Ki [5]: > 10000 nM | Papp [7]: 0.4 ×10⁻⁶ cm/s | Ratio (Caco-2 [8]): 51 | logD [9]: 0.2 | half-life [10]: 4.5 h | Vd [12]: 8.5 L/kg | Cmax [13]: 25 ng/mL | Tmax [14]: 0.8 h | AUC (Rattus norvegicus): 81 ng·h/mL | bioavailability [16]: 1.1%
Compound: COc1cccc(-c2c(C)n(Cc3c(F)cccc3F)c(=O)n(C[C@H](NCCCC(=O)O)c3ccccc3)c2=O)c1F
